Assay results as given in patent US20140348819A1, “Methods of Treating Cancer” (Dana-Farber Cancer Institute, Inc., priority 2011, published 2014).

Tested on: six V600E BRAF melanoma cell lines
Assay: Screening of recombinant RTK ligands for ability to confer resistance to BRAFi (PLX4720) or MEKi (PD184352) (Table 4)
Format: cell-based, human
Set-up: ability of recombinant RTK ligand to confer resistance / ability of recombinant RTK ligand to confer resistance (screening value): scale not given here
Method: HGF is the only one that can substantially confer drug resistance to the cell lines.
The complexity of the tumor microenvironment is much greater than an in vitro co-culture system. Therefore, the inventors explored whether the activation of other RTKs could result in a similar resistance as that observed with the activation of MET. To this end, six V600E BRAF melanoma cell lines were tested for their resistance to either BRAFi (PLX4720) or MEKi (PD184352) after the addition of 22 RTK ligands that have the potential of activating almost all known RTKs. […] The activation of a selected subset of these RTKs was confirmed by western blotting and by high throughput tyrosine kinase phosphorylation profiling.

NGF
ability of recombinant RTK ligand to confer resistance (A2058, PD184352 - 1 uM, ligand 0.4 ng/ml): 0.98
ability of recombinant RTK ligand to confer resistance (A2058, PD184352 - 1 uM, ligand 1.6 ng/ml): 0.95
ability of recombinant RTK ligand to confer resistance (A2058, PD184352 - 1 uM, ligand 6.25 ng/ml): 1.09
ability of recombinant RTK ligand to confer resistance (A2058, PD184352 - 1 uM, ligand 25 ng/ml): 0.99
ability of recombinant RTK ligand to confer resistance (A2058, PD184352 - 1 uM, ligand 100 ng/ml): 0.99
ability of recombinant RTK ligand to confer resistance (A2058, PLX4720 - 2 uM, ligand 0.4 ng/ml): 1.04
ability of recombinant RTK ligand to confer resistance (A2058, PLX4720 - 2 uM, ligand 1.6 ng/ml): 1.02
ability of recombinant RTK ligand to confer resistance (A2058, PLX4720 - 2 uM, ligand 6.25 ng/ml): 1.06
ability of recombinant RTK ligand to confer resistance (A2058, PLX4720 - 2 uM, ligand 25 ng/ml): 1.07
ability of recombinant RTK ligand to confer resistance (A2058, PLX4720 - 2 uM, ligand 100 ng/ml): 0.98
ability of recombinant RTK ligand to confer resistance (C32, PD184352 - 1 uM, ligand 0.4 ng/ml): 1.00
ability of recombinant RTK ligand to confer resistance (C32, PD184352 - 1 uM, ligand 1.6 ng/ml): 1.07
ability of recombinant RTK ligand to confer resistance (C32, PD184352 - 1 uM, ligand 6.25 ng/ml): 1.07
ability of recombinant RTK ligand to confer resistance (C32, PD184352 - 1 uM, ligand 25 ng/ml): 0.98
ability of recombinant RTK ligand to confer resistance (C32, PD184352 - 1 uM, ligand 100 ng/ml): 1.03
ability of recombinant RTK ligand to confer resistance (C32, PLX4720 - 2 uM, ligand 0.4 ng/ml): 0.98
ability of recombinant RTK ligand to confer resistance (C32, PLX4720 - 2 uM, ligand 1.6 ng/ml): 0.98
ability of recombinant RTK ligand to confer resistance (C32, PLX4720 - 2 uM, ligand 6.25 ng/ml): 1.03
ability of recombinant RTK ligand to confer resistance (C32, PLX4720 - 2 uM, ligand 25 ng/ml): 0.97
ability of recombinant RTK ligand to confer resistance (C32, PLX4720 - 2 uM, ligand 100 ng/ml): 0.87
ability of recombinant RTK ligand to confer resistance (Colo 829, PD184352 - 1 uM, ligand 0.4 ng/ml): 1.04
ability of recombinant RTK ligand to confer resistance (Colo 829, PD184352 - 1 uM, ligand 1.6 ng/ml): 1.03
ability of recombinant RTK ligand to confer resistance (Colo 829, PD184352 - 1 uM, ligand 6.25 ng/ml): 1.04
ability of recombinant RTK ligand to confer resistance (Colo 829, PD184352 - 1 uM, ligand 25 ng/ml): 0.94
ability of recombinant RTK ligand to confer resistance (Colo 829, PD184352 - 1 uM, ligand 100 ng/ml): 1.02
ability of recombinant RTK ligand to confer resistance (Colo 829, PLX4720 - 2 uM, ligand 0.4 ng/ml): 0.96
ability of recombinant RTK ligand to confer resistance (Colo 829, PLX4720 - 2 uM, ligand 1.6 ng/ml): 0.96
ability of recombinant RTK ligand to confer resistance (Colo 829, PLX4720 - 2 uM, ligand 6.25 ng/ml): 1.02
ability of recombinant RTK ligand to confer resistance (Colo 829, PLX4720 - 2 uM, ligand 25 ng/ml): 0.96
ability of recombinant RTK ligand to confer resistance (Colo 829, PLX4720 - 2 uM, ligand 100 ng/ml): 1.03
ability of recombinant RTK ligand to confer resistance (G-361, PD184352 - 1 uM, ligand 0.4 ng/ml): 1.09
ability of recombinant RTK ligand to confer resistance (G-361, PD184352 - 1 uM, ligand 1.6 ng/ml): 0.78
ability of recombinant RTK ligand to confer resistance (G-361, PD184352 - 1 uM, ligand 6.25 ng/ml): 0.97
ability of recombinant RTK ligand to confer resistance (G-361, PD184352 - 1 uM, ligand 25 ng/ml): 0.85
ability of recombinant RTK ligand to confer resistance (G-361, PD184352 - 1 uM, ligand 100 ng/ml): 0.94
ability of recombinant RTK ligand to confer resistance (G-361, PLX4720 - 2 uM, ligand 0.4 ng/ml): 1.10
ability of recombinant RTK ligand to confer resistance (G-361, PLX4720 - 2 uM, ligand 1.6 ng/ml): 0.87
ability of recombinant RTK ligand to confer resistance (G-361, PLX4720 - 2 uM, ligand 6.25 ng/ml): 0.91
ability of recombinant RTK ligand to confer resistance (G-361, PLX4720 - 2 uM, ligand 25 ng/ml): 0.92
ability of recombinant RTK ligand to confer resistance (G-361, PLX4720 - 2 uM, ligand 100 ng/ml): 0.94
ability of recombinant RTK ligand to confer resistance (SK-MEL-5, PD184352 - 1 uM, ligand 0.4 ng/ml): 1.03
ability of recombinant RTK ligand to confer resistance (SK-MEL-5, PD184352 - 1 uM, ligand 1.6 ng/ml): 1.04
ability of recombinant RTK ligand to confer resistance (SK-MEL-5, PD184352 - 1 uM, ligand 6.25 ng/ml): 0.96
ability of recombinant RTK ligand to confer resistance (SK-MEL-5, PD184352 - 1 uM, ligand 25 ng/ml): 1.07
ability of recombinant RTK ligand to confer resistance (SK-MEL-5, PD184352 - 1 uM, ligand 100 ng/ml): 1.09
ability of recombinant RTK ligand to confer resistance (SK-MEL-5, PLX4720 - 2 uM, ligand 0.4 ng/ml): 1.00
ability of recombinant RTK ligand to confer resistance (SK-MEL-5, PLX4720 - 2 uM, ligand 1.6 ng/ml): 1.03
ability of recombinant RTK ligand to confer resistance (SK-MEL-5, PLX4720 - 2 uM, ligand 6.25 ng/ml): 0.85
ability of recombinant RTK ligand to confer resistance (SK-MEL-5, PLX4720 - 2 uM, ligand 25 ng/ml): 0.93
ability of recombinant RTK ligand to confer resistance (SK-MEL-5, PLX4720 - 2 uM, ligand 100 ng/ml): 0.92
ability of recombinant RTK ligand to confer resistance (SK-MEL-28, PD184352 - 1 uM, ligand 0.4 ng/ml): 0.91
ability of recombinant RTK ligand to confer resistance (SK-MEL-28, PD184352 - 1 uM, ligand 1.6 ng/ml): 0.92
ability of recombinant RTK ligand to confer resistance (SK-MEL-28, PD184352 - 1 uM, ligand 6.25 ng/ml): 0.99
ability of recombinant RTK ligand to confer resistance (SK-MEL-28, PD184352 - 1 uM, ligand 25 ng/ml): 0.96
ability of recombinant RTK ligand to confer resistance (SK-MEL-28, PD184352 - 1 uM, ligand 100 ng/ml): 1.08
ability of recombinant RTK ligand to confer resistance (SK-MEL-28, PLX4720 - 2 uM, ligand 0.4 ng/ml): 0.89
ability of recombinant RTK ligand to confer resistance (SK-MEL-28, PLX4720 - 2 uM, ligand 1.6 ng/ml): 0.97
ability of recombinant RTK ligand to confer resistance (SK-MEL-28, PLX4720 - 2 uM, ligand 6.25 ng/ml): 1.05
ability of recombinant RTK ligand to confer resistance (SK-MEL-28, PLX4720 - 2 uM, ligand 25 ng/ml): 1.00
ability of recombinant RTK ligand to confer resistance (SK-MEL-28, PLX4720 - 2 uM, ligand 100 ng/ml): 1.12
